Experimental data from patent US8114904B2, “Luminescence quenchers and fluorogenic probes for detection of reactive species” (Versitech Limited & Morningside Ventures Limited, priority 2008, dated 2012).

Legend:
[1] = UV-visible absorption spectrum; assay type: physicochemical; conditions: 1 μM solution, pH 7.4 0.1 M phosphate buffer, 0.1% DMF
Procedure: Compound 10 obtained in Example 4 was dissolved in pH 7.4 0.1 M phosphate buffer containing 0.1% DMF as cosolvent to form a 10 μM solution.
Compound 12 obtained in Example 5 was dissolved in pH 7.4 0.1 M phosphate buffer containing 0.1% DMF as cosolvent to form a 1 μM solution.
Compound 14 obtained in Example 6 was dissolved in pH 7.4 0.1 M phosphate buffer containing 0.1% DMF as cosolvent to form a 1 μM solution.
Compound 30 obtained in Example 7 was dissolved in pH 7.4 0.1 M phosphate buffer containing 0.1% DMF as cosolvent to form a 10 μM solution. The absorption spectrum of the 10 μM solution of Compound 30 was measured.

[2] = Emission spectra of the probe itself; assay type: physicochemical; conditions: 1 μM, 0.1 M phosphate buffer pH 7.4, excitation 515 nm, Hitachi F2500, 700 V
Procedure: (§1) Compound 10 obtained in Example 4 was dissolved in DMF to a concentration of 10 mM, and then the solution was diluted to 10 μM by 0.1 M phosphate buffer (pH 7.4). The fluorescence spectrum of the 10 μM solution of Compound 10 was measured using a Hitachi F2500 fluorescence spectrometer and the photomultiplier voltage was 700 V. The slit width was 2.5 nm for both excitation and emission. The measurement was carried out at an excitation wavelength of 520 nm. The results shown in FIG. 1 indicate that Compound 10 itself is non-fluorescent.
(§2) Compound 12 obtained in Example 5 was dissolved in DMF to a concentration of 1 mM, and then the solution was diluted to 1 μM by 0.1 M phosphate buffer (pH 7.4). The fluorescence spectrum of the 1 μM solution of Compound 12 was measured using a Hitachi F2500 fluorescence spectrometer and the photomultiplier voltage was 700 V. The slit width was 2.5 nm for both excitation and emission. The measurement was carried out at an excitation wavelength of 515 nm. The results shown in FIG. 4 indicate that Compound 12 itself is non-fluorescent.
as §2, with “Compound 14” for “Compound 12”, “Example 6” for “Example 5”, “FIG. 6” for “FIG. 4”
as §1, with “Compound 30” for “Compound 10”, “Example 7” for “Example 4”, “Hitachi F7000” for “Hitachi F2500”, “was 900” for “was 700”, “nm.” for “nm. The results shown in FIG. 1 indicate that Compound 10 itself is non-fluorescent.”

[3] = Detection of hypochlorite: fluorescence spectra after addition of NaOCl; conditions: 1 μM probe
Procedure: Compound 14 obtained in Example 6 was dissolved in DMF to a concentration of 1 mM, and then the solution was diluted to 1 μM by 0.1 M potassium phosphate buffer (pH 7.4). Commercial bleach was the source of NaOCl. The concentration of NaOCl was determined by titration with sodium thiosulfate solution which was standardized by the titration with KlO3. Then NaOCl was added to provide final concentrations of 0, 2, 3, 4, 5, 6, 7, and 8 μM. Fluorescence spectra of the solutions were measured after 5 minutes under the same conditions as mentioned above.

[4] = Comparison of specificity with different ROS and RNS; conditions: 1 μM probe in 0.1 M potassium phosphate buffer
Procedure: The reactivity of Compound 10 was compared toward different reactive oxygen species (ROS) and reactive nitrogen species (RNS), including OCl^−, H2O2, ^1O2, NO, O2^•−, ^•OH, ONOO^− and alkylperoxyl radical (ROO^•). Different reactive oxygen species and reactive nitrogen species were added independently to 5 mL of the solution of Compound 10 (10 μM in 0.1 M potassium phosphate buffer). The changes of fluorescence intensity before and after the treatment were measured. The reactive oxygen species and reactive nitrogen species were prepared as follows. • a. H2O2 (final 100 μM) was added and then stirred for 1 hour at 25° C. • b. (3-(1,4-Dihydro-1,4-epidioxy-1-naphthyl)propionic acid) (final 100 μM) was added and then stirred at 25° C. for 1 hour. • c. 2,2′-Azobis(2-amidinopropane)dihydrochloride (final 100 μM) was added and then stirred at 25° C. for 1 hour. • d. SNP (Sodium Nitroferricyanide (III) Dihydrate) (final 100 μM) was added and then stirred for 1 hour at 25° C. • e. O2^•− was generated by xanthine and xanthine oxidase. Xanthine oxidase was added firstly. After xanthine oxidase was dissolved, xanthine (final 100 μM) was added and the mixtures were stirred at 25° C. for 1 hour. • f. Ferrous chloride (final 10 μM) was added in the presence of 10 equivalences of H2O2 (100 μM). • g. ONOO^− (final 10 μM) was added at 25° C. • h. NaOCl (final 10 μM) was added at 25° C. Commercial bleach was the source of NaOCl.
The reactivity of Compound 12 was compared toward different reactive oxygen species (ROS) and reactive nitrogen species (RNS), including OCl^−, H2O2, ^1O2, NO, O2^•−, ^•OH, ONOO^− and alkylperoxyl radical (ROO^•). Different reactive oxygen species and reactive nitrogen species were added independently to 5 mL of the solution of Compound 12 (1 μM in 0.1 M potassium phosphate buffer). The changes of fluorescence intensity before and after the treatment were measured. The reactive oxygen species and reactive nitrogen species were prepared as follows: • i. H2O2 (final 100 μM) was added and then stirred for 1 hour at 25° C. • j. (3-(1,4-Dihydro-1,4-epidioxy-1-naphthyl)propionic acid) (final 100 μM) was added and then stirred at 25° C. for 1 hour. • k. 2,2′-Azobis(2-amidinopropane)dihydrochloride (final 100 μM) was added and then stirred at 25° C. for 1 hour. • l. SNP (Sodium Nitroferricyanide (III) Dihydrate) (final 100 μM) was added and then stirred for 1 hour at 25° C. • m. O2^•− was generated by xanthine and xanthine oxidase. Xanthine oxidase was added firstly. After xanthine oxidase was dissolved, xanthine (final 100 μM) was added and the mixtures were stirred at 25° C. for 1 hour. • n. Ferrous chloride (final 10 μM) was added in the presence of 10 equivalences of H2O2 (100 μM). • o. ONOO^− (final 10 μM) was added at 25° C. • p. NaOCl (final 10 μM) was added at 25° C. Commercial bleach was the source of NaOCl.
The reactivity of Compound 14 was compared toward different reactive oxygen species (ROS) and reactive nitrogen species (RNS), including OCl^−, H2O2, ^1O2, NO, O2^•−, ^•OH, ONOO^− and alkylperoxyl radical (ROO^•). Different reactive oxygen species and reactive nitrogen species were added independently to 5 mL of the corresponding solution of Compound 14 (1 μM in 0.1 M potassium phosphate buffer). The changes in fluorescence intensity before and after the treatment were measured. The reactive oxygen species and reactive nitrogen species were prepared as follows: • a. H2O2 (final 100 μM) was added and then stirred for 1 hour at 25° C. • b. (3-(1,4-Dihydro-1,4-epidioxy-1-naphthyl)propionic acid) (final 100 μM) was added and then stirred at 25° C. for 1 hour. • c. 2,2′-Azobis(2-amidinopropane)dihydrochloride (final 100 μM) was added and then stirred at 25° C. for 1 hour. • d. SNP (Sodium Nitroferricyanide (III) Dihydrate) (final 100 μM) was added and then stirred for 1 hour at 25° C. • e. O2^•− was generated by xanthine and xanthine oxidase. Xanthine oxidase was added firstly. […]

## CN(c1ccc(N)cc1)c1ccc2c(c1)Oc1cc(O)ccc1C21OC(=O)c2ccccc21 (stereo not drawn) [Compound 14]
[1]
  absorption maximum: about 515 nm
[2]
  fluorescence of the probe itself: non-fluorescent
[3]; 0.1 M potassium phosphate buffer pH 7.4
  fluorescence intensity at 535 nm with increasing concentration of hypochlorite: increases linearly
[3]; NaOCl 0-8 μM, 0.1 M potassium phosphate buffer pH 7.4, after 5 minutes, excitation 515 nm
  fluorescence intensity after the addition of hypochlorite: increase significantly
[4]
  reactivity among ROS and RNS in an abiotic system: much higher reactivity towards hypochlorite
[4]; 25° C.
  fluorescence enhancement by hypochlorite compared with any other ROS and RNS: much stronger fluorescence enhancement
